Reference: patent US6710041B2, “Pyrrolo[2,1-B][3,1] benzothiazepines and their use for the preparation of medicaments with antipsychotic activity” (Sigma-Tau Industrie Farmaceutiche Riunite S.p.A., priority 2003, dated 2004)
Blank lines part the entries; values can stand above or below the compound they belong to.

What was measured:
Wistar male rats = assay: Evaluation of catalepsy (bar test); type: in vivo, rat
Procedure: The test was performed on Wistar male rats (N=7 animals); catalepsy was evaluated by means of a metal bar measuring 0.6 cm in diameter positioned at a distance of 10 cm from the work surface. The substance studied, in the form of maleic acid salt (ST1699), was administered subcutaneously 30 minutes prior to the evaluation. The subsequent evaluation times were 60, 90, 120, 180, 240, and 300 minutes after administration.
By means of the test used for evaluating catalepsy in the rat, ST1699 affinity for the D2 receptor subtype of the nigrostriatal dopaminergic system was verified.
Table 4 gives the percentages of animals presenting catalepsy at the various different times after administration of subacute doses of the study compound.

5-HT2 versus D2 receptor = assay: Classification of typical and atypical antipsychotics by 5-HT2 versus D2 pKi ratio and Log Y score; details: for LogY: Log Y score smaller than 6.48 = atypical profile
H1 histamine receptor = biological target: T1, H1 histamine receptor (Rattus norvegicus, UniProt P31390); assay: Interaction with H1 receptors, [3H]-pyrilamine binding, rat cortex membranes; details: Table 1; mean and standard deviation; read-out: H1 Ki ± ds
T1 construct: from tissue; host or cells: rat cortex membranes
T1 sequence (P31390 whole entry): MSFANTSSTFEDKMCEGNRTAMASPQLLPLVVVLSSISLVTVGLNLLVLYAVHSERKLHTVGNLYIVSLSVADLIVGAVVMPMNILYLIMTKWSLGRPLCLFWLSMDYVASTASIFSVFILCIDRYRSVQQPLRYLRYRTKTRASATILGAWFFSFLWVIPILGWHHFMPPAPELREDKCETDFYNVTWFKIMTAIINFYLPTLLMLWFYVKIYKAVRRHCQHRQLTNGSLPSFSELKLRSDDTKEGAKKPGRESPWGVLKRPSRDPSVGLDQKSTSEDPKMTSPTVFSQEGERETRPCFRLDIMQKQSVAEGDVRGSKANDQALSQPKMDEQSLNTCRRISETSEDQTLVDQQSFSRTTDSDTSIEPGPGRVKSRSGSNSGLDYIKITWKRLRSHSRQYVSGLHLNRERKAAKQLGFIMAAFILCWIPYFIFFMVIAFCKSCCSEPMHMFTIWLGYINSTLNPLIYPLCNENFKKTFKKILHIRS

Compound: O=C(CCCN1CCC(O)(c2ccc(Cl)cc2)CC1)c1ccc(F)cc1 [Haloperidol, haloperidol, reference compound]
- percentage of animals presenting catalepsy (Wistar male rats; 0.2 mg/kg, 30 min after administration): 0%
- percentage of animals presenting catalepsy (Wistar male rats; 0.2 mg/kg, 60 min after administration): 70%
- percentage of animals presenting catalepsy (Wistar male rats; 0.2 mg/kg, 90 min after administration): 100%
- percentage of animals presenting catalepsy (Wistar male rats; 0.2 mg/kg, 120 min after administration): 100%
- percentage of animals presenting catalepsy (Wistar male rats; 0.2 mg/kg, 180 min after administration): 100%

- LogY (5-HT2 versus D2 receptor): 8.20
- Ki (H1 histamine receptor): 2.7 ± 0.02 nM
Compound: CN1CCN(C2=Cn3cccc3Sc3ccc(Cl)cc32)CC1 [ST1508, 7-chloro-9-(4-methyl-1-piperazinyl)pyrrolo[2,1-b][1,3]benzothiazepine]

Compound: CN1CCN(C2=Cn3cccc3Sc3ccc(Cl)cc32)CC1 [ST1699, 7-chloro-9-(4-methyl-1-piperazinyl)pyrrolo[2,1-b][1,3]benzothiazepine]
- percentage of animals presenting catalepsy (Wistar male rats; 0.3 mg/kg subcutaneously, 30 min after administration): 0%
- percentage of animals presenting catalepsy (Wistar male rats; 0.3 mg/kg subcutaneously, 60 min after administration): 0%
- percentage of animals presenting catalepsy (Wistar male rats; 0.3 mg/kg subcutaneously, 90 min after administration): 17%
- percentage of animals presenting catalepsy (Wistar male rats; 0.3 mg/kg subcutaneously, 120 min after administration): 17%
- percentage of animals presenting catalepsy (Wistar male rats; 0.3 mg/kg subcutaneously, 180 min after administration): 33%
- percentage of animals presenting catalepsy (Wistar male rats; 0.6 mg/kg subcutaneously, 30 min after administration): 33%
- percentage of animals presenting catalepsy (Wistar male rats; 0.6 mg/kg subcutaneously, 60 min after administration): 66%
- percentage of animals presenting catalepsy (Wistar male rats; 0.6 mg/kg subcutaneously, 90 min after administration): 83%
- percentage of animals presenting catalepsy (Wistar male rats; 0.6 mg/kg subcutaneously, 120 min after administration): 100%
- percentage of animals presenting catalepsy (Wistar male rats; 0.6 mg/kg subcutaneously, 180 min after administration): 100%
- occurrence of catalepsy (Wistar male rats; in words, highest dose among those used (0.6 mg/kg), effects comparable to 0.2 mg/kg of haloperidol): induced the occurrence of catalepsy

- LogY (5-HT2 versus D2 receptor): 3.19
- binding affinity at 5 HT2 receptor compared with D2 dopamine receptor (5-HT2 versus D2 receptor; in words): greater than D2 dopamine receptor
Compound: Cc1ccc2n1C=C(N1CCN(C)CC1)c1ccccc1S2 [ST2092, 1-Methyl-9-(4-methylpiperazin-1-yl)pyrrolo[2,1-b][1,3]benzothiazepine]
